Drawing on PubChem BioAssay AID272 (DTP/NCI, 2004), this text covers T/C for eleven compounds.

The assay deals with Lewis lung carcinoma i.m., BDF1 mice, T/C %. Put plainly: NCI In Vivo Anticancer Drug Screen. Data for tumor model Lewis Lung Carcinoma (intramuscular) in B6D2F1 (BDF1) mice. Put shortly: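 Antitumour activity is assessed in transplanted-tumour mice. Endpoint is survival or tumour size, normalised to vehicle-dosed controls (T/C).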
Where [1] appears, read: endpoint: median survival time, dose: 90.0 mg/kg/injection, schedule: Q01DX011 (ip), vehicle: saline, higher = longer survival.
Setting [2] is: endpoint: mean tumor weight, dose: 200.0 mg/kg/injection, schedule: Q01DX011 (ip), vehicle: water, higher = larger tumour.
Setting [3] is: endpoint: mean tumor weight, dose: 400.0 mg/kg/injection, schedule: Q01DX011 (ip), vehicle: water, higher = larger tumour.
The mark [4] stands for this setting: endpoint: mean tumor weight (est.), dose: 5.0 mg/kg/injection, schedule: Q01DX011 (ip), vehicle: saline, higher = larger tumour.
The mark [5] stands for this setting: endpoint: median survival time, dose: 5.0 mg/kg/injection, schedule: Q01DX011 (ip), vehicle: saline, higher = longer survival.

Several values for one entry are separate records, joined by “and”; a condition that tells them apart may be missing. Equal entries are not always repeated. Records with an inconclusive call do not appear.

Take `O=c1n(CC2CO2)c(=O)n(CC2CO2)c(=O)n1CC1CO1` (centres undefined): the T/C (endpoint: median survival time, dose: 20.0 mg/kg/injection, schedule: Q01DX011 (ip), vehicle: saline, higher = longer survival) is 115 % of control; the T/C (endpoint: median survival time, dose: 30.0 mg/kg/injection, schedule: Q01DX011 (ip), vehicle: saline, higher = longer survival) is 120 % of control and 122 % of control; the T/C (endpoint: median survival time, dose: 40.0 mg/kg/injection, schedule: Q01DX011 (ip), vehicle: saline, higher = longer survival) was 117 % of control and 124 % of control; the T/C (endpoint: median survival time, dose: 70.0 mg/kg/injection, schedule: Q01DX011 (ip), vehicle: saline, higher = longer survival) is 114 % of control; the T/C (endpoint: median survival time, dose: 80.0 mg/kg/injection, schedule: Q01DX011 (ip), vehicle: saline, higher = longer survival) was 90 % of control; the T/C under setting [1] is 115 % of control.

As to `CC(C)[C@](O)(C(=O)OCC1=CC[N+]2([O-])CC[C@@H](O)[C@@H]12)[C@H](C)O` (some centres undefined), the T/C reads like this: (endpoint: mean tumor weight (est.), dose: 200.0 mg/kg/injection, schedule: Q01DX011 (ip), vehicle: saline, higher = larger tumour) 76 % of control; (endpoint: mean tumor weight (est.), dose: 400.0 mg/kg/injection, schedule: Q01DX011 (ip), vehicle: saline, higher = larger tumour) 78 % of control; (endpoint: mean tumor weight, dose: 50.0 mg/kg/injection, schedule: Q01DX011 (ip), vehicle: water, higher = larger tumour) 78 % of control; (endpoint: mean tumor weight, dose: 100.0 mg/kg/injection, schedule: Q01DX011 (ip), vehicle: water, higher = larger tumour) 44 % of control; under setting [2], 56 % of control; under setting [3], 47 % of control. The T/C (endpoint: median survival time, dose: 200.0 mg/kg/injection, schedule: Q01DX011 (ip), vehicle: saline, higher = longer survival) is 101 % of control and the T/C (endpoint: median survival time, dose: 400.0 mg/kg/injection, schedule: Q01DX011 (ip), vehicle: saline, higher = longer survival) was 101 % of control.

`Cc1c(C(=O)O)nc(/C=C/C(=O)O)[nH]c1=O`: the T/C is, setting by setting: (endpoint: median survival time, dose: 4.0 mg/kg/injection, schedule: Q01DX009 (ip), vehicle: water, higher = longer survival) 105 % of control; (endpoint: median survival time, dose: 8.0 mg/kg/injection, schedule: Q01DX009 (ip), vehicle: water, higher = longer survival) 108 % of control; (endpoint: median survival time, dose: 16.0 mg/kg/injection, schedule: Q01DX009 (ip), vehicle: water, higher = longer survival) 108 % of control.

Take `Cc1[nH]c(=O)[nH]c(=O)c1N(CCF)CCCl`: the T/C was 69 % of control (endpoint: mean tumor weight (est.), dose: 5.0 mg/kg/injection, schedule: Q01DX011 (ip), vehicle: saline with Tween-80, higher = larger tumour); 81 % of control under setting [4]; 74 % of control (endpoint: mean tumor weight (est.), dose: 10.0 mg/kg/injection, schedule: Q01DX011 (ip), vehicle: saline with Tween-80, higher = larger tumour); 80 % of control (endpoint: mean tumor weight (est.), dose: 10.0 mg/kg/injection, schedule: Q01DX011 (ip), vehicle: saline, higher = larger tumour); 54 % of control (endpoint: mean tumor weight (est.), dose: 20.0 mg/kg/injection, schedule: Q01DX011 (ip), vehicle: saline with Tween-80, higher = larger tumour); 28 % of control (endpoint: mean tumor weight (est.), dose: 20.0 mg/kg/injection, schedule: Q01DX011 (ip), vehicle: saline, higher = larger tumour). Also, the T/C (endpoint: mean tumor weight (est.), dose: 40.0 mg/kg/injection, schedule: Q01DX011 (ip), vehicle: saline with Tween-80, higher = larger tumour) was 24 % of control; the T/C (endpoint: median survival time, dose: 5.0 mg/kg/injection, schedule: Q01DX011 (ip), vehicle: saline with Tween-80, higher = longer survival) was 101 % of control; the T/C under setting [5] is 109 % of control; the T/C (endpoint: median survival time, dose: 10.0 mg/kg/injection, schedule: Q01DX011 (ip), vehicle: saline with Tween-80, higher = longer survival) was 105 % of control; the T/C (endpoint: median survival time, dose: 10.0 mg/kg/injection, schedule: Q01DX011 (ip), vehicle: saline, higher = longer survival) was 119 % of control; the T/C (endpoint: median survival time, dose: 20.0 mg/kg/injection, schedule: Q01DX011 (ip), vehicle: saline with Tween-80, higher = longer survival) was 100 % of control.

Consider `Clc1nc2ccccc2nc1CI`, for which the T/C reads like this: under setting [4], 70 % of control; under setting [5], 100 % of control.

Consider `CNNCc1ccc(C(=O)NC(C)C)cc1`, for which the T/C was 86 % of control (endpoint: mean tumor weight (est.), dose: 23.0 mg/kg/injection, schedule: Q01DX009 (ip), vehicle: saline, higher = larger tumour); 95 % of control (endpoint: mean tumor weight (est.), dose: 39.0 mg/kg/injection, schedule: Q01DX009 (ip), vehicle: saline, higher = larger tumour); 64 % of control (endpoint: mean tumor weight (est.), dose: 65.0 mg/kg/injection, schedule: Q01DX009 (ip), vehicle: saline, higher = larger tumour); 79 % of control (endpoint: mean tumor weight (est.), dose: 108.0 mg/kg/injection, schedule: Q01DX009 (ip), vehicle: saline, higher = larger tumour); 95 % of control (endpoint: mean tumor weight (est.), dose: 180.0 mg/kg/injection, schedule: Q01DX009 (ip), vehicle: saline, higher = larger tumour); 37 % of control (endpoint: mean tumor weight (est.), dose: 300.0 mg/kg/injection, schedule: Q01DX009 (ip), vehicle: saline, higher = larger tumour). Moreover, the T/C reads like this: (endpoint: mean tumor weight, dose: 23.0 mg/kg/injection, schedule: Q01DX011 (ip), vehicle: saline, higher = larger tumour) 100 % of control; (endpoint: mean tumor weight, dose: 37.5 mg/kg/injection, schedule: Q01DX011 (ip), vehicle: saline, higher = larger tumour) 78 % of control; (endpoint: mean tumor weight, dose: 39.0 mg/kg/injection, schedule: Q01DX011 (ip), vehicle: saline, higher = larger tumour) 72 % of control; (endpoint: mean tumor weight, dose: 65.0 mg/kg/injection, schedule: Q01DX011 (ip), vehicle: saline, higher = larger tumour) 37 % of control; (endpoint: mean tumor weight, dose: 75.0 mg/kg/injection, schedule: Q01DX011 (ip), vehicle: saline, higher = larger tumour) 62 % of control; (endpoint: mean tumor weight, dose: 108.0 mg/kg/injection, schedule: Q01DX011 (ip), vehicle: saline, higher = larger tumour) 62 % of control. In addition, the T/C runs as follows: (endpoint: mean tumor weight, dose: 150.0 mg/kg/injection, schedule: Q01DX011 (ip), vehicle: saline, higher = larger tumour) 35 % of control; (endpoint: mean tumor weight, dose: 180.0 mg/kg/injection, schedule: Q01DX011 (ip), vehicle: saline, higher = larger tumour) 41 % of control; (endpoint: median survival time, dose: 37.5 mg/kg/injection, schedule: Q01DX011 (ip), vehicle: saline, higher = longer survival) 97 % of control; (endpoint: median survival time, dose: 75.0 mg/kg/injection, schedule: Q01DX011 (ip), vehicle: saline, higher = longer survival) 91 % of control; (endpoint: median survival time, dose: 150.0 mg/kg/injection, schedule: Q01DX011 (ip), vehicle: saline, higher = longer survival) 95 % of control.

On to `CC/C(=C(/CC)c1ccc(O)cc1)c1ccc(O)cc1`, for which the T/C is 43 % of control (endpoint: mean tumor weight, dose: 25.0 mg/kg/injection, schedule: Q01DX011 (ip), vehicle: steriod suspending solution, higher = larger tumour); 29 % of control (endpoint: mean tumor weight, dose: 50.0 mg/kg/injection, schedule: Q01DX011 (ip), vehicle: steriod suspending solution, higher = larger tumour); 14 % of control and 34 % of control (endpoint: mean tumor weight, dose: 100.0 mg/kg/injection, schedule: Q01DX011 (ip), vehicle: steriod suspending solution, higher = larger tumour); 86 % of control (endpoint: median survival time, dose: 25.0 mg/kg/injection, schedule: Q01DX011 (ip), vehicle: steriod suspending solution, higher = longer survival); 91 % of control and 97 % of control (endpoint: median survival time, dose: 25.0 mg/kg/injection, schedule: Q01DX011 (ip), vehicle: water, higher = longer survival); 106 % of control (endpoint: median survival time, dose: 50.0 mg/kg/injection, schedule: Q01DX011 (ip), vehicle: steriod suspending solution, higher = longer survival). Further, the T/C is 92 % of control (endpoint: median survival time, dose: 50.0 mg/kg/injection, schedule: Q01DX011 (ip), vehicle: water, higher = longer survival); 104 % of control (endpoint: median survival time, dose: 100.0 mg/kg/injection, schedule: Q01DX011 (ip), vehicle: steriod suspending solution, higher = longer survival); 97 % of control and 101 % of control (endpoint: median survival time, dose: 100.0 mg/kg/injection, schedule: Q01DX011 (ip), vehicle: water, higher = longer survival).

Regarding `O=C(CCCl)N1CCN(C(=O)CCCl)c2ccccc21`, the T/C reads like this: (endpoint: mean tumor weight (est.), dose: 150.0 mg/kg/injection, schedule: Q01DX011 (ip), vehicle: saline with Tween-80, higher = larger tumour) 83 % of control; (endpoint: mean tumor weight (est.), dose: 300.0 mg/kg/injection, schedule: Q01DX011 (ip), vehicle: saline with Tween-80, higher = larger tumour) 82 % of control; (endpoint: median survival time, dose: 150.0 mg/kg/injection, schedule: Q01DX011 (ip), vehicle: saline with Tween-80, higher = longer survival) 108 % of control; (endpoint: median survival time, dose: 300.0 mg/kg/injection, schedule: Q01DX011 (ip), vehicle: saline with Tween-80, higher = longer survival) 93 % of control.

Turning to `O=S(=O)(O)C(Nc1ccccc1)c1ccccc1` (centres undefined), the T/C under setting [2] was 79 % of control and the T/C under setting [3] is 58 % of control.

Regarding `N=[N+]=CC(=O)OCC(N)C(=O)O` (centres undefined), the T/C reads like this: (endpoint: mean tumor weight, dose: 2.0 mg/kg/injection, schedule: Q01DX011 (ip), vehicle: saline, higher = larger tumour) 94 % of control; (endpoint: mean tumor weight, dose: 4.0 mg/kg/injection, schedule: Q01DX011 (ip), vehicle: saline, higher = larger tumour) 71 % of control; (endpoint: mean tumor weight, dose: 8.0 mg/kg/injection, schedule: Q01DX011 (ip), vehicle: saline, higher = larger tumour) 27 % of control; (endpoint: median survival time, dose: 2.0 mg/kg/injection, schedule: Q01DX011 (ip), vehicle: saline, higher = longer survival) 96 % of control and 107 % of control; (endpoint: median tumor weight (est.), dose: 2.0 mg/kg/injection, schedule: Q01DX011 (ip), vehicle: saline, higher = larger tumour) 79 % of control; (endpoint: median tumor weight (est.), dose: 8.0 mg/kg/injection, schedule: Q01DX011 (ip), vehicle: saline, higher = larger tumour) 50 % of control.

Turning to `Nc1ccn(C2OC(COP(=O)(O)O)C(O)C2O)c(=O)n1` (centres undefined), the T/C reads like this: (endpoint: mean tumor weight, dose: 19.6 mg/kg/injection, schedule: Q01DX011 (ip), vehicle: saline, higher = larger tumour) 68 % of control; (endpoint: median survival time, dose: 19.6 mg/kg/injection, schedule: Q01DX011 (ip), vehicle: saline, higher = longer survival) 94 % of control and 96 % of control; (endpoint: median survival time, dose: 32.6 mg/kg/injection, schedule: Q01DX011 (ip), vehicle: saline, higher = longer survival) 43 % of control; (endpoint: median survival time, dose: 54.0 mg/kg/injection, schedule: Q01DX011 (ip), vehicle: saline, higher = longer survival) 42 % of control; under setting [1], 39 % of control.
